Test results from patent US6436963B1 (priority 1998, dated 2002).

Columns and labels:
Puccinia recondita = assay: Brown Rust (PUCCRT), protectant spray test on wheat seedlings; assay type: in vivo; conditions: wheat (cultivar Monon), sprayed to run off at 100 ppm, inoculated after 24 hours
Erysiphe graminis = assay: Powdery Mildew of Wheat (ERYSGT), protectant spray test on wheat seedlings; assay type: in vivo; conditions: wheat (cultivar Monon), sprayed to run off at 100 ppm, inoculated after 24 hours
Phytophthora infestans = assay type: in vivo; conditions: tomatoes (cultivar Rutgers), sprayed to run off at 100 ppm, inoculated after 24 hours
Septoria tritici = conditions: wheat (cultivar Monon), sprayed to run off at 100 ppm, inoculated after 24 hours
Leptosphaeria nodorum = assay: Glume Blotch of Wheat (LEPTNO), protectant spray test on wheat seedlings; assay type: in vivo; conditions: wheat (cultivar Monon), sprayed to run off at 100 ppm, inoculated after 24 hours

SMILES | PUCCRT control of plant disease (Puccinia recondita) | ERYSGT control of plant disease (Erysiphe graminis) | PHYTIN control of plant disease (Phytophthora infestans) | SEPTTR control of plant disease (Septoria tritici) | LEPTNO control of plant disease (Leptosphaeria nodorum)
CNC(=O)C(=NOC)c1ccccc1COc1ncc(C(O)c2ccccc2)cc1C (racemic) [Example 13] | ++ (++ = 75-100% control of plant disease) | ++ (++ = 75-100% control of plant disease) | ++ (++ = 75-100% control of plant disease) | ++ (++ = 75-100% control of plant disease) | –
CNC(=O)C(=NOC)c1ccccc1COc1ncc(C(O)c2ccc(F)cc2)cc1C (racemic) [Example 14] | ++ (++ = 75-100% control of plant disease) | ++ (++ = 75-100% control of plant disease) | ++ (++ = 75-100% control of plant disease) | ++ (++ = 75-100% control of plant disease) | –
CNC(=O)C(=NOC)c1ccccc1COc1ncc(C(O)c2ccc(Cl)cc2)cc1C (racemic) [Example 15] | ++ (++ = 75-100% control of plant disease) | ++ (++ = 75-100% control of plant disease) | ++ (++ = 75-100% control of plant disease) | ++ (++ = 75-100% control of plant disease) | –
CNC(=O)C(=NOC)c1ccccc1COc1ncc(C(O)c2ccc(OC(F)(F)F)cc2)cc1Cl (racemic) [Example 16] | ++ (++ = 75-100% control of plant disease) | ++ (++ = 75-100% control of plant disease) | − (− = 0-24% control of plant disease) | ++ (++ = 75-100% control of plant disease) | –
CNC(=O)C(=NOC)c1ccccc1COc1ncc(C(OC(C)=O)c2cccc(C)c2)cc1Cl (stereo not drawn) [Example 112] | ++ (++ = 75-100% control of plant disease) | ++ (++ = 75-100% control of plant disease) | ++ (++ = 75-100% control of plant disease) | – | ++ (++ = 75-100% control of plant disease)
CNC(=O)C(=NOC)c1ccccc1COc1ncc(C(OC)c2cccc(C)c2)cc1Cl (stereo not drawn) [Example 114] | ++ (++ = 75-100% control of plant disease) | ++ (++ = 75-100% control of plant disease) | − (− = 0-24% control of plant disease) | – | ++ (++ = 75-100% control of plant disease)
CNC(=O)C(=NOC)c1ccccc1COc1cc(OC)c(C(OC)c2cccc(C)c2)cn1 (stereo not drawn) [Example 115] | ++ (++ = 75-100% control of plant disease) | + (+ = 25-74% control of plant disease) | − (− = 0-24% control of plant disease) | – | ++ (++ = 75-100% control of plant disease)
CNC(=O)C(=NOC)c1ccccc1COc1ncc(C(OC(C)=O)c2ccc(OC)c(OC)c2)cc1Cl (stereo not drawn) [Example 116] | ++ (++ = 75-100% control of plant disease) | ++ (++ = 75-100% control of plant disease) | + (+ = 25-74% control of plant disease) | – | ++ (++ = 75-100% control of plant disease)
CNC(=O)C(=NOC)c1ccccc1COc1ncc(C(OC(C)C)c2ccccc2)cc1Cl (stereo not drawn) [Example 117] | ++ (++ = 75-100% control of plant disease) | ++ (++ = 75-100% control of plant disease) | − (− = 0-24% control of plant disease) | – | ++ (++ = 75-100% control of plant disease)
CCOCCOC(c1ccccc1)c1cnc(OCc2ccccc2C(=NOC)C(=O)NC)c(Cl)c1 (stereo not drawn) [Example 118] | ++ (++ = 75-100% control of plant disease) | ++ (++ = 75-100% control of plant disease) | − (− = 0-24% control of plant disease) | – | ++ (++ = 75-100% control of plant disease)
CNC(=O)C(=NOC)c1ccccc1COc1ncc(C(OC(C)(C)C)c2ccccc2)cc1Cl (stereo not drawn) [Example 119] | ++ (++ = 75-100% control of plant disease) | ++ (++ = 75-100% control of plant disease) | ++ (++ = 75-100% control of plant disease) | – | ++ (++ = 75-100% control of plant disease)
CCCOC(c1ccccc1)c1cnc(OCc2ccccc2C(=NOC)C(=O)NC)c(Cl)c1 (stereo not drawn) [Example 120] | − (− = 0-24% control of plant disease) | ++ (++ = 75-100% control of plant disease) | + (+ = 25-74% control of plant disease) | – | + (+ = 25-74% control of plant disease)
CNC(=O)C(=NOC)c1ccccc1COc1ncc(C2(c3ccccc3)COC(C)(C)O2)cc1Cl (stereo not drawn) [Example 123] | ++ (++ = 75-100% control of plant disease) | ++ (++ = 75-100% control of plant disease) | ++ (++ = 75-100% control of plant disease) | – | ++ (++ = 75-100% control of plant disease)
CNC(=O)C(=NOC)c1ccccc1COc1ncc(C2(c3ccccc3)CO2)cc1Cl (stereo not drawn) [Example 124] | ++ (++ = 75-100% control of plant disease) | ++ (++ = 75-100% control of plant disease) | ++ (++ = 75-100% control of plant disease) | – | ++ (++ = 75-100% control of plant disease)
CNC(=O)C(=NOC)c1ccccc1COc1ncc(C2(c3ccccc3)COC(=S)O2)cc1Cl (stereo not drawn) [Example 125] | ++ (++ = 75-100% control of plant disease) | ++ (++ = 75-100% control of plant disease) | ++ (++ = 75-100% control of plant disease) | – | ++ (++ = 75-100% control of plant disease)
